Legend:
[1] = tested on: p-LCK, p38MAPK, GATA-3, T-bet in CART19 cells; assay: Western blot of signaling molecules in stimulated CART19 cells; assay type: cell-based
Protocol: FIG. 24A-B. A. Western blot analysis of p-LCK inhibition by TP0903 in CART19 cells. CART19 cells were incubated with lethally irradiated JeKo-1 in the presence of TP0903 at a 1 to 3 ratio for 24 hours. After the incubation, CART19 cells were purified with anti-CD19 micro beads. […] B. Comparison of gene expression between TP0903 treated CART19 cells and non-treated CART19 cells subpopulations using RNA-seq. CART19 cells from three biological replicates were thawed and stimulated with irradiated JeKo-1 (120 Gy) for 5 days. Each sample was treated with either 30 nM TP0903 (treated condition) or DMSO (untreated condition). Representative flow cytometric analysis of CART19 cells before RNA isolation (right). RNA-seq was performed on an Illumina […] by the Genomic Sequencing Core at Mayo Clinic.

[2] = tested on: regulatory T cells (Treg); assay: Regulatory T cell expansion (anti-CD3/CD28 beads, IL-2); assay type: cell-based, human
Protocol: (§1) FIGS. 19A-F. A. Inhibitory receptors expression in naïve T cells after TCR activation with CD3 stimulation in the increasing dose of TP0903. Naïve T cells were incubated with anti CD3/CD28 beads at a 1 to 3 ratio in the presence of TP0903. At day 3, T cells were stained with PD-1, TIM-3, LAG-3, and ICOS. […] Teff cells were isolated by negative selection using Human T Cell Isolation Kit. Tregs were isolated by negative selection using the human CD4^+CD127^lowCD25^+ Treg isolation kit. Teff and Treg were stimulated with anti CD3/CD28 beads and 400 U/ml of IL-2. At day 5, total T cells were evaluated via CountBright quantification. C. CART19 cytokine assay in the presence TP0903. UTDs or CART19 were incubated with Jeko in the presence of TP-0903 at a 1 to 1 ratio. Supernatant was harvested and analyzed by 32-plex Luminex array after 3 days. D. Inhibitory receptors expression in CART19 cells in the presence TP0903. UTDs or CART19 were incubated with Jeko at a 1 to 1 E/T ratio in the presence of TP0903. At day 5, T cells were stained with PD-1 (left), LAG-3 (right), and TIM-3. […] Cell killing was assessed by luminescence at 24 hours. […]
(§2) FIG. 21A-E. TP0903 modulates naïve T cells function upon stimulation of PMA/Ionomycin in vitro. […] At day 5, total T cells were evaluated via CountBright quantification.

[3] = tested on: p-LCK, p38MAPK, GATA-3, T-bet in CART19 cells; assay: Western blot of signaling molecules in stimulated CART19 cells; assay type: cell-based; remark: listed apart in the source
Effector T cells (Teff) = assay: Effector T cell expansion (anti-CD3/CD28 beads, IL-2); assay type: cell-based, human; conditions: anti-CD3/CD28 beads + 400 U/ml IL-2; day 5
Protocol: as §1, §2

regulatory CART cells = assay: Regulatory CART cells in CART19 co-culture with targets; assay type: cell-based; conditions: increasing doses of TP0903; CART19 co-cultured with targets
Source text: FIG. 17. Increasing doses of TP0903 reduced regulatory CART cells when CART19 are co-cultured with their targets.

[4] = CART19 + irradiated JeKo-1, 24 hours, highest dose
[5] = CART19 + irradiated JeKo-1, 24 hours, highest dose (65 nM)
[6] = stimulated CART cells (FIG. 18)

## CN1CCN(Cc2ccc(Nc3ncc(Cl)c(Nc4ccccc4S(=O)(=O)N(C)C)n3)cc2)CC1 [TP0903]
[1]; [4]
  GATA-3: inhibited
  T-bet: inhibited
[1]; [5]
  phosphorylation of LCK: modest inhibition
  phosphorylation of p38MAPK: modest inhibition
[1]; T cell lysates, CART19, Example 2 text
  phosphorylation of LCK: remarkably reduced
[2]; anti-CD3/CD28 beads + 400 U/ml IL-2, day 5
  Treg expansion: specifically reduced
[2]; treated with TP0903 for 3 days
  Treg versus effector T cells: preferential reduction
[3]; [6]
  GATA-3: reduction
  P38: reduction
  P-JNK: reduction
  T-bet: reduction
[3]; stimulated CART cells, dose dependent (FIG. 18)
  phospho LCK: increase
Effector T cells (Teff)
  Teff expansion: not interfered
Regulatory CART cells
  regulatory CART cells: reduced

— patent US20210145830A1, “MATERIALS AND METHODS FOR TREATING CANCER” (Mayo Foundation for Medical Education and Research, priority 2018, published 2021)
